From patent US20240294498A1, “FACTOR XIIA INHIBITORS” (Lunac Therapeutics Ltd, priority 2021, published 2024)

Assays:
Assay type in all cases: biochemical
[1] = target: T1, thrombin (Homo sapiens, UniProt P00734); assay: Determination of selectivity: thrombin inhibition (chromogenic substrate GPR); settings: fold selectivity for FXIIa over thrombin (human); category
T1 construct: FXa (5 nM) and thrombin (5 nM)
Experimental: (§1) The activities of the compounds of the invention have been determined in vitro using the following assays protocols for the screening of activity of FXIIa and other proteases. Each of these assays were performed in a purified system employing the use of chromogenic assays in microplate plate wells. Chromogenic peptide substrates mimicking natural protein substrates are attached via an amide bond to a chromogenic group. Paranitroaniline (pNA) is released from the peptide following catalyses by the proteolytic enzyme; the absorbance increases and can be monitored at 405 nm.
(§2) All compounds were dissolved in 100% (v/v) DMSO to a stock concentration of 10 mM, the highest concentration of compound used in each assay is 500 μM. The final concentrations of DMSO were 5% (v/v) in 50 mM Tris 137 mM NaCl pH 7.4. Where no test compound was added a final concentration of 5% DMSO was employed.
(§3) To determine selectivity of test compounds, these test compounds were assayed for inhibitory activity against other serine proteases including FXa and thrombin. Essentially compounds at increasing concentrations were incubated with each enzyme: FXa (5 nM) and thrombin (5 nM), for 10 mins at 37° C. followed by the appropriate chromogenic substrate, S2765 (Chromogenix) and GPR (Bachem) respectively in 50 mM Tris, 137 mM NaCl, pH 7.4. Substrates were used at a concentration equal to the appropriate experimentally derived KM. Kinetic readings at 405 nm were monitored every 12 secs for a total duration of 3 hours at 37° C. Gradients of initial rates were determined and employed to calculate IC50 values. Values of IC50 were converted to Ki values based on the formula:
(§4) Ki═IC50/(1+[Substrate]/Km)
(§5) Where [Substrate] denotes the concentration of substrate used in the assay and Km is the determined value of each enzyme with its own substrate.
The fold selectivity for FXIIa over thrombin for the compounds of the invention has been categorised based on the fold selectivity values, the categories being “+”, “++” and “+++”. The category “+” refers to fold selectivity values less than 10 (e.g. a fold selectivity value of less than 10 and greater than 1). The category “++” refers to a fold selectivity value of 10 to 100. The category “+++” refers to fold selectivity values greater than 100.

[2] = target: FXa (Homo sapiens, UniProt P00742); assay: Determination of selectivity: FXa inhibition (chromogenic substrate S2765); settings: fold selectivity for FXIIa over FXa (human); category
FXa, sequence (P00742 235-488 limits assumed): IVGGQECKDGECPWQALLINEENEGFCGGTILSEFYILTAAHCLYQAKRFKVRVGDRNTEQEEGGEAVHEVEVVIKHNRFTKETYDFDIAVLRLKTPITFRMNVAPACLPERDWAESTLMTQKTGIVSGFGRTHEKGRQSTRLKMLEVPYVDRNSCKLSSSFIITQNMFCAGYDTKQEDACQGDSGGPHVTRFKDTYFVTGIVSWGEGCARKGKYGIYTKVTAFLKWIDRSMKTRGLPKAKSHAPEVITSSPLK
FXa, sequence (P00742 41-179 partner limits assumed): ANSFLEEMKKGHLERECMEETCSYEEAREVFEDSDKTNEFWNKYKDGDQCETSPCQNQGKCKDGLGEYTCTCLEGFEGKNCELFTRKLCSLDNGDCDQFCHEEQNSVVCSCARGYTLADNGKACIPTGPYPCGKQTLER
Experimental: as §1, §2, §3, §4, §5
The fold selectivity for FXIIa over FXa for the compounds of the invention has been categorised based on the fold selectivity values, the categories being “o”, “oo” and “ooo”. The category “o” refers to fold selectivity values less than 10 (e.g. a fold selectivity value of less than 10 and greater than 1). The category “oo” refers to a fold selectivity value of 10 to 100. The category “ooo” refers to fold selectivity values greater than 100.

[3] = target: T2, FXIIa (Homo sapiens, UniProt P00748); assay: Determination of Factor XIIa inhibition (chromogenic substrate S-2302); settings: human FXIIa alpha, Ki category
T2 construct: FXIIa alpha
T2 sequence (P00748 373-615 limits assumed): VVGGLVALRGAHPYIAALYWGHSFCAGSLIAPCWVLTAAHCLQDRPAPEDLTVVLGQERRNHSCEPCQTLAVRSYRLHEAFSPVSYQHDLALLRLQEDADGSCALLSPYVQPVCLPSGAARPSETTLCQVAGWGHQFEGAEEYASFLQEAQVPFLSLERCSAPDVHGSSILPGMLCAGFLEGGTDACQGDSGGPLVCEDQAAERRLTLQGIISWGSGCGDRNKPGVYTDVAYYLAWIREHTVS
T2 sequence (P00748 20-372 partner limits assumed): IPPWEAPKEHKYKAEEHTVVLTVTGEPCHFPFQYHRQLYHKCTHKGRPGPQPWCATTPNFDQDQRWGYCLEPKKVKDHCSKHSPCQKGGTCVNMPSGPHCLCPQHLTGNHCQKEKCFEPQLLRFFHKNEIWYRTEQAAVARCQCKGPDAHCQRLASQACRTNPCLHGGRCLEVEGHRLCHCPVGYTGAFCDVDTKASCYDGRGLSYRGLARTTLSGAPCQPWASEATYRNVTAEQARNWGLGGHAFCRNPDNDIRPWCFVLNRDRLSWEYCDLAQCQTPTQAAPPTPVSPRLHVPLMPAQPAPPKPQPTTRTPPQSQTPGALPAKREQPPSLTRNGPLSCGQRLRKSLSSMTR
Experimental: as §1, §2
Factor XIIa activity was measured using a chromogenic substrate S-2302 (Chromogenix). Various concentrations of compound were incubated with 10 nM of FXIIa and incubated at 37° C. for 10 minutes in 50 mM Tris, 137 mM NaCl, pH 7.4, prior to the addition of the chromogenic substrate S-2302 at a concentration equal the to the experimentally derived KM. Kinetic readings at 405 nm were monitored every 12 secs for a total duration of 3 hours at 37° C. Gradients of initial rates were determined and employed to calculate IC50 values.
The activity of the compounds of the invention has been categorised based on the Ki values, the categories being “†”, “*”, “**” and “***”. […] The category “**” refers to compounds with a Ki value of 0.2 μM to 0.8 μM.
as §4, §5

Row | Structure (SMILES) | FXa (human)/FXIIa alpha (human) [2] | Ki [3] [nM] | Thrombin (human)/FXIIa alpha (human) [1]
1 | CCN1CCC[C@H](C(=O)N2CCCC2)[C@@H]1C(=O)N1C[C@H](Cc2ccc(C)cc2)C[C@H]1C(=O)NCc1ccc2c(cnn2C)c1 [Example M05772, (2S,4R)-1-((2R,3S)-1-ethyl-3-(pyrrolidine-1-carbonyl)piperidine-2-carbonyl)-N-((1-methyl-1H-indazol-5-yl)methyl)-4-(4-methylbenzyl)pyrrolidine-2-carboxamide] | ∘∘∘ | 200 to 800 | +++ (fold selectivity values greater than 100)
2 | Cc1ccc(C[C@@H]2C[C@@H](C(=O)NCc3ccc4c(cnn4C)c3)N(C(=O)[C@@H]3NCCC[C@@H]3C(=O)N3CCCC34CC4)C2)cc1 [Example M05773] | ∘∘∘ | 200 to 800 | ++ (a fold selectivity value of 10 to 100)
3 | Cc1ccc(C[C@@H]2C[C@@H](C(=O)NCc3ccc4c(cnn4C)c3)N(C(=O)[C@@H]3NCCC[C@@H]3C(=O)N3CCC4(CC3)CC4)C2)cc1 [Example M05775, (2S,4R)-1-((2R,3S)-3-(6-azaspiro[2.5]octane-6-carbonyl)piperidine-2-carbonyl)-N-((1-methyl-1H-indazol-5-yl)methyl)-4-(4-methylbenzyl)pyrrolidine-2-carboxamide] | ∘∘∘ | 800 to 5000 | ++ (a fold selectivity value of 10 to 100)
4 | Cc1ccc(C[C@@H]2C[C@@H](C(=O)NCc3ccc4c(cnn4C)c3)N(C(=O)[C@@H]3NCCC[C@@H]3C(=O)N3CC[C@H](F)C3)C2)cc1 [Example M05777, (2S,4R)-1-((2R,3S)-3-((S)-3-fluoropyrrolidine-1-carbonyl)piperidine-2-carbonyl)-N-((1-methyl-1H-indazol-5-yl)methyl)-4-(4-methylbenzyl)pyrrolidine-2-carboxamide] | ∘∘∘ | 200 to 800 | +++ (fold selectivity values greater than 100)
5 | Cc1ccc(C[C@@H]2C[C@@H](C(=O)NCc3ccc4c(cnn4C(F)F)c3)N(C(=O)[C@@H]3NCCC[C@@H]3C(=O)N3CCCC3)C2)cc1 [Example M05778, (2S,4R)-N-((1-(difluoromethyl)-1H-indazol-5-yl)methyl)-4-(4-methylbenzyl)-1-((2R,3S)-3-(pyrrolidine-1-carbonyl)piperidine-2-carbonyl)pyrrolidine-2-carboxamide] | ∘∘∘ | 200 to 800 | +++ (fold selectivity values greater than 100)
6 | Cc1ccc(C[C@@H]2C[C@@H](C(=O)NCc3ccc4c(cnn4C)c3)N(C(=O)[C@@H]3NCCC[C@@H]3C(=O)N3C4CCC3CC4)C2)cc1 [Example M05804, (2S,4R)-1-((2R,3S)-3-(7-azabicyclo[2.2.1]heptane-7-carbonyl)piperidine-2-carbonyl)-N-((1-methyl-1H-indazol-5-yl)methyl)-4-(4-methylbenzyl)pyrrolidine-2-carboxamide] | ∘∘∘ | 200 to 800 | +++ (fold selectivity values greater than 100)

Further lines, with some results ahead:

Row | FXa (human)/FXIIa alpha (human) [2] | Ki [3] [nM] | Structure (SMILES) | Thrombin (human)/FXIIa alpha (human) [1]
7 | ∘∘∘ | < 200 | Cc1ccc(C[C@@H]2C[C@@H](C(=O)NCc3ccc4c(cnn4C)c3)N(C(=O)[C@@H]3NCCC[C@@H]3C(=O)N3CC[C@@H](F)C3)C2)cc1 [Example M05785, (2S,4R)-1-((2R,3S)-3-((R)-3-fluoropyrrolidine-1-carbonyl)piperidine-2-carbonyl)-N-((1-methyl-1H-indazol-5-yl)methyl)-4-(4-methylbenzyl)pyrrolidine-2-carboxamide] | +++ (fold selectivity values greater than 100)
8 | ∘∘∘ | 200 to 800 | Cc1ccc(C[C@@H]2C[C@@H](C(=O)NCc3ccc4c(cnn4C)c3)N(C(=O)[C@@H]3NCCC[C@@H]3C(=O)N3CCC(F)(F)C3)C2)cc1 [Example M05787, (2S,4R)-1-((2R,3S)-3-(3,3-difluoropyrrolidine-1-carbonyl)piperidine-2-carbonyl)-N-((1-methyl-1H-indazol-5-yl)methyl)-4-(4-methylbenzyl)pyrrolidine-2-carboxamide] | +++ (fold selectivity values greater than 100)
9 | ∘∘∘ | < 200 | Cn1ncc2cc(CNC(=O)[C@@H]3C[C@@H](Cc4ccc(C(F)(F)F)cc4)CN3C(=O)[C@@H]3NCCC[C@@H]3C(=O)N3CCCC3)ccc21 [Example M05788, (2S,4R)-N-((1-methyl-1H-indazol-5-yl)methyl)-1-((2R,3S)-3-(pyrrolidine-1-carbonyl)piperidine-2-carbonyl)-4-(4-(trifluoromethyl)benzyl)pyrrolidine-2-carboxamide] | +++ (fold selectivity values greater than 100)
10 | ∘∘∘ | 800 to 5000 | Cc1ccc(O[C@@H]2C[C@@H](C(=O)NCc3ccc4c(cnn4C)c3)N(C(=O)[C@@H]3NCCC[C@@H]3C(=O)N3CCCC3)C2)cc1 [Example M05798, (2S,4R)-N-[(1-methylindazol-5-yl)methyl]-4-(4-methylphenoxy)-1-[(2R,3S)-3-(pyrrolidine-1-carbonyl)piperidine-2-carbonyl]pyrrolidine-2-carboxamide] | +++ (fold selectivity values greater than 100)
11 | ∘∘∘ | < 200 | COc1cc(CNC(=O)[C@@H]2C[C@@H](Cc3ccc(C)cc3)CN2C(=O)[C@@H]2NCCC[C@@H]2C(=O)N2CCCC2)cc2cnn(C)c12 [Example M05799, (2S,4R)-N-((7-methoxy-1-methyl-1H-indazol-5-yl)methyl)-4-(4-methylbenzyl)-1-((2R,3S)-3-(pyrrolidine-1-carbonyl)piperidine-2-carbonyl)pyrrolidine-2-carboxamide] | ++ (a fold selectivity value of 10 to 100)
12 | ∘∘∘ | < 200 | Cc1ccc(C[C@@H]2C[C@@H](C(=O)NCc3ccc4c(c3)c(F)nn4C)N(C(=O)[C@@H]3NCCC[C@@H]3C(=O)N3CCCC3)C2)cc1 [Example M05806, (2S,4R)-N-((3-fluoro-1-methyl-1H-indazol-5-yl)methyl)-4-(4-methylbenzyl)-1-((2R,3S)-3-(pyrrolidine-1-carbonyl)piperidine-2-carbonyl)pyrrolidine-2-carboxamide] | +++ (fold selectivity values greater than 100)
